# Reference: patent publication US7585843B2, “Treatment of demyelinating autoimmune disease with modified ordered peptides” (Bayhill Therapeutics, Inc., priority 2003, dated 2009)
# “Also recorded” adds a separate entry of the source. Like-named read-outs stand apart in the source and are kept apart here. Non-standard residues stand in square brackets, D forms with d. No end group written: not given here.
# Assays:
# [1] = test system: rat MHC class II; assay: Blocking of native peptide binding to MHC by FACS (FIG. 3), rat; settings: biotinylated peptide on spleen APCs
# Experimental: (§1) The ability of MBP therapeutic ordered peptide EYYKEYYKEYYK, substituted MBP therapeutic ordered peptide D-Ala-EYYKEYYKEYYK-amide, or Copaxone to block the binding of the native peptide to either a mouse or rat MHC was measured by FACS analysis.
# (§2) Peptide binding to class II molecules was measured as follows. Briefly, APCs (antigen presenting cells) were purified from spleen cells by negative selection using magnetic beads (Dynal, Oslo, Norway) conjugated with antibodies specific for T cells (CD52), macrophages (CD45R), and NK cells (NKR-P1A) (Pharmingen, San Diego, Calif.). After selection, cells were plated at a concentration of 0.5×10^6 cells per well in flat bottom 96 well microtiter plates (Costar, Corning, N.Y.). Therapeutic ordered peptides were used as inhibitors are added to the wells at different concentrations (ranging from 0.01 to 0.24 mM) in a volume of 0.05 ml. After an hour of incubation at 37° C., 0.01 mM of biotinylated MBP, MOG, or PLP peptide was added. After four more hours of incubation, cells were harvested and binding of PE-Avidin to the cell surface was analyzed by FACS (Becton Dickinson, San Jose, Calif.). To determine the IC50 value of the therapeutic ordered peptide, for example EYYK, a linear regression curve was calculated using data points from 0.01 mM to […].
# [2] = test system: T cell lines from immunized mice; assay: Cytokine production by T cell lines from immunized mice (FIG. 6); type: cell-based; settings: T cell lines from mice immunized with the antigen
# Text: OVA is known to cause an induction of Th1 type of T cells after immunization.
# One of the mechanisms proposed for the efficacy of Copaxone in MS is the induction of Th2 type of antigen-specific T cells that are beneficial in treating the disease process.
# In a similar protocol we immunized mice with D-ala modified ordered peptide, non-modified ordered peptide, and control peptides including Cop1 and ovalbumin (OVA). OVA is known to cause an induction of Th1 type of T cells after immunization.
# [3] = test system: mouse MHC class II; assay: Blocking of native peptide binding to MHC by FACS (FIG. 3), mouse; settings: biotinylated peptide on spleen APCs
# Experimental: as §1, §2
# [4] = test system: EAE in Lewis rats; assay: Blocking of EAE induction in Lewis rats, peptide mixed into encephalitogenic emulsion (FIG. 5); type: in vivo, rat; settings: 0.5 mg mixed into MBPp85-99/CFA emulsion, 12-13 animals
# Experimental: FIG. 5 is a graph showing the blocking of induction of EAE by the substituted D-Ala form of the therapeutic ordered peptide. Lewis rats were injected with an emulsion of 0.1 mg of MBPp85-99 in complete Freund's adjuvant for EAE induction. Either of 0.5 mg MBP therapeutic ordered peptide EYYKEYYKEYYK, substituted MBP therapeutic ordered peptide D-Ala-EYYKEYYKEYYK-amide, or Copaxone was mixed into the encephalitogenic emulsion. Results are expressed as mean disease score of 12-13 animals.
# (§3) EAE induction. Synthetic peptide MBPp85-99 was dissolved in PBS to a concentration of 2 mg/ml and emulsified with and equal volume of Incomplete Freund's Adjuvant (IFA), supplemented with 4 mg/ml heat-killed Mycobacterium tuberculosis H37Ra (Difco Laboratories, Detroit, Mich.). Rats were injected subcutaneously with 0.1 ml of the peptide emulsion. Experimental animals were scored as follows: 0, no clinical disease; 1, tail weakness or paralysis; 2, hind limb weakness; 3, hind limb paralysis; 4, forelimb weakness or paralysis; 5, moribund or dead animal.
# The ability of therapeutic ordered peptide EYYKEYYKEYYK, modified therapeutic ordered peptide D-Ala-EYYKEYYKEYYK-amide, or Copaxone to treat a rat model of EAE was tested. A single 0.5 mg dose of each of these peptides was administered along with the encephalitogen (MBP 85-99 peptide in CFA) as an emulsion.
# [5] = test system: PLPp139-151 specific T cell line; assay: T cell proliferation assay (FIG. 4); type: cell-based
# Experimental: FIG. 4 is a graph showing the blocking by the therapeutic ordered peptide of T cell proliferation. The ability of MBP therapeutic ordered peptide (EYYKEYYKEYYK), substituted MBP therapeutic ordered peptide (D-Ala-EYYKEYYKEYYK-amide), or Copaxone to block the proliferation of a PLPp139-151 specific T cell line was measured in a proliferation assay.
# The ability of therapeutic ordered peptide EYYKEYYKEYYK, modified therapeutic ordered peptide D-Ala-EYYKEYYKEYYK-amide, or Copaxone to block the proliferation of a PLPp139-151 specific T cell line was measured in a proliferation assay.
# [6] = test system: EAE in mice; assay: Relapse rates in mice with ongoing EAE induced with PLPp139-151 (FIG. 2); type: in vivo; settings: PLPp139-151-induced EAE; treated days 17, 29, 36; i.v., i.p. or s.c.; 0.5 or 0.05 mg per mouse; in mannitol
# Experimental: FIG. 2 is a graph depicting the reduction in relapse rates in mice with EAE treated with ordered peptides. Animals were induced for EAE with an emulsion of 0.1 mg of PLPp139-151 in complete Freund's adjuvant (day 0). Mice were randomized into equal groups at the peak of disease and were treated at days 17, 29, and 36 after EAE induction with intravenous, intra-peritoneal or subcutaneous administration of EYYKEYYKEYYK (MBP therapeutic ordered peptide) or Copaxone at two different dosages, 0.5 mg per mouse or 0.05 mg per mouse. Both the MBP therapeutic ordered peptide and Copaxone were dissolved in mannitol.
# Injection of ordered peptides containing TCR-MHC binding motifs reverse the development of EAE. In order to test the potential of the predicted sequences to revert the development of ongoing EAE we delivered a single dose of a PBS solution containing 0.5 mg of peptide in 0.25 ml. […] In addition, ordered peptide treatment was administered in a mouse model of ongoing-EAE (FIG. 2) at days 17, 29, and 36 after EAE induction with intravenous, intra-peritoneal or subcutaneous administration of EYYKEYYKEYYK (therapeutic ordered peptide) or Copaxone at two different dosages, 0.5 mg per mouse or 0.05 mg per mouse. Both the therapeutic ordered peptide and Copaxone were dissolved in mannitol.
# [7] = test system: EAE in Lewis rats; assay: EAE treatment in Lewis rats, single dose at disease onset (FIG. 1); type: in vivo, rat; settings: MBPp85-99-induced EAE, single intraperitoneal dose 0.5 mg in PBS at disease onset (day 10)
# Experimental: FIG. 1 is a graph showing the prevention of EAE in rats treated with therapeutic ordered peptides. […] Animals were injected with an emulsion of 0.1 mg of MBPp85-99 in complete Freund's adjuvant for EAE induction. Ten days later, when the clinical manifestations of disease became apparent, a single intra-peritoneal dose of MBP therapeutic ordered peptide {SEQ ID NO:4} EYYKEYYKEYYK (squares), {SEQ ID NO:5} KYYKYYKYYKYY (triangles), or PBS (circles)was administered. Results are expressed as mean disease score of groups of six animals.
# Animals. Female Lewis rats (6-8 weeks old), were purchased from Harlan Sprague Dawley (Indianapolis, Ind.)
# as §3
# EAE treatment. Rats previously immunized with MBPp85-99 for EAE induction were scored from day eight after peptide injection. […]
# [8] = test system: anti-MBP antibodies affinity-purified from CNS lesions; assay: Inhibition of autoantibody binding to MBP; set-up: species or system human; settings: antibodies from CNS lesions of 12 post-mortem MS cases
# Text: Previously, we have compared the structural requirements for autoantibody recognition to those of T cell clones reactive to MBP p87-99. Anti-MBP antibodies were affinity-purified from CNS lesions of 12 post-mortem cases studied. The MBP p87-99 peptide was immunodominant in all cases and it inhibited autoantibody binding to MBP by more than 95%. Residues contributing to autoantibody binding were located in a 10-amino acid segment p86-95 ({SEQ ID NO:9} VVHFFKNIVT) that also contained the MHC-T cell receptor contact residues for T cells recognizing MBP in the context of DRB1*1501 and DQB1*0602. In the epitope center, the same residues, {SEQ ID NO:10} VHFFK, were important for T cell binding and MHC recognition. Recently, the crystal structure of HLA-DR2 with MBPp85-99 was solved, confirming the prediction that K91 is the major TCR contact residue, while F90 is a major anchor into the hydrophobic P4 pocket of the MHC molecule.
substance,measurement,setting,value
D-Ala-EYYKEYYKEYYK-amide ([dA]EYYKEYYKEYYK-NH2; N-terminus assumed; SMILES C[C@@H](N)C(=O)N[C@@H](CCC(=O)O)C(=O)N[C@@H](Cc1ccc(O)cc1)C(=O)N[C@@H](Cc1ccc(O)cc1)C(=O)N[C@@H](CCCCN)C(=O)N[C@@H](CCC(=O)O)C(=O)N[C@@H](Cc1ccc(O)cc1)C(=O)N[C@@H](Cc1ccc(O)cc1)C(=O)N[C@@H](CCCCN)C(=O)N[C@@H](CCC(=O)O)C(=O)N[C@@H](Cc1ccc(O)cc1)C(=O)N[C@@H](Cc1ccc(O)cc1)C(=O)N[C@@H](CCCCN)C(N)=O) [substituted (modified) MBP therapeutic ordered peptide],blocking of binding of native MBP peptide to rat MHC class II (mean fluorescence intensity),[1],more effective in blocking either MHC than the non-D-ala form
same,blocking of binding of native MBP peptide to rat MHC class II (mean fluorescence intensity),[1]; listed as D-Ala EYYK,higher affinity of binding to these MHC's than the unmodified EYYK; also recorded: approaches the binding achieved by Copaxone
same,blocking of binding of native MBP peptide to rat MHC class II (mean fluorescence intensity),[1]; listed as D-ala-EYYK,comparable amount of inhibition
same,IL4 production,[2],increased production of IL4 and IL10
same,IL10 production,[2],increased production of IL4 and IL10
same,blocking of binding of native PLP peptide to mouse MHC class II (mean fluorescence intensity),[3],more effective in blocking either MHC than the non-D-ala form
same,blocking of binding of native PLP peptide to mouse MHC class II (mean fluorescence intensity),[3]; listed as D-Ala EYYK,higher affinity of binding to these MHC's than the unmodified EYYK; also recorded: approaches the binding achieved by Copaxone
same,blocking of binding of native PLP peptide to mouse MHC class II (mean fluorescence intensity),[3]; listed as D-ala-EYYK,comparable amount of inhibition
same,"blocking of EAE induction, mean disease score",[4],more effective in blocking EAE induction than the un-substituted therapeutic ordered peptide; also recorded: superiority of the D-Ala form of the ordered peptide over the non-substituted form; also recorded: nearly reaches the efficacy of Copaxone
same,reduction in T cell proliferation,[5],dose dependent reduction in T cell proliferation; also recorded: exceeds the reduction in T cell proliferation for either the unmodified ordered peptide or for Copaxone
same,reduction in T cell proliferation,[5]; listed as D-Ala EYYK,dose dependent reduction in T cell proliferation; also recorded: exceeds the reduction in proliferation with either the unmodified ordered peptide or Copaxone
same,reduction in T cell proliferation,[5]; listed as D-ala EYYK,more effective in blocking T cell proliferation than the unmodified EYYK
"EYYKEYYKEYYK [MBP therapeutic ordered peptide, motif [EYYK]n with n=3]",blocking of binding of native MBP peptide to rat MHC class II (mean fluorescence intensity),[1],comparable amount of inhibition
same,relapse rates per mouse,[6],reduce relapse rates similarly
same,blocking of binding of native PLP peptide to mouse MHC class II (mean fluorescence intensity),[3],comparable amount of inhibition
same,"EAE development, mean disease score",[7],prevents the development of EAE; also recorded: effective in preventing and treating experimental autoimmune encephalomyelitis
"MBP p87-99: myelin basic protein peptide 87-99, immunodominant epitope (SRPHLIRLFSRDA; UniProt P02686 87-99, looked up, fragment)",inhibition of autoantibody binding to MBP,[8],more than 95%
"OVA: ovalbumin, control known to cause an induction of Th1 type of T cells after immunization [reference compound]",IL4 production,[2],did not cause an increase in these cytokines
same,IL10 production,[2],did not cause an increase in these cytokines
